Experiments:
[1] = Model dough, HPLC analysis of polar lipids in dough (cowpea LAH); type: biochemical, wheat
Experimental: (§1) 10 g of flour and 0.020 g sodium chloride were mixed in a 10 g Farinograph mixing bowl for 1 minute either with or without enzymes. Subsequently water (500 Brabender units) was added and mixed for 5 minutes at 30° C. After mixing the dough was placed at 32° C. for 1 hour, and then frozen and freeze dried prior to further analysis.
(§2) 10 g of fully proofed dough was immediately frozen and freeze dried. The freeze-dried dough was milled in a coffee mill and passed through an 800 micron screen. 1.5 g freeze-dried dough was scaled in a 15 ml centrifuge tube with screw top lid. 7.5 ml water saturated butanol (WSB) was added. The centrifuge tube was placed in a boiling water bath for 10 minutes. The tubes were placed in a Rotamix and rotated at 45 rpm for 20 minutes at ambient temperature and then placed in a boiling water bath again for a further 10 minutes prior to being Rotated on the Rotamix for a further 30 minutes at ambient temperature. The tubes were centrifuged at 3500 g for 5 minutes. 5 ml supernatant was transferred into a vial and the WSB was evaporated to dryness under a steam of nitrogen.
(§3) Determination of Free Fatty Acids for Lipase Assay, JAOCS 63:89). Determination of Glycolipids and Phospholipids by HPLC.
(§4) The calibration curve for PC was used to calculate the amounts of the glycolipids and phospholipids.
Lipids extracted from the dough were further analysed by HPLC in order to study the effect on polar lipids in the dough.

[2] = Minibread dough, free fatty acid analysis; type: biochemical, wheat
Experimental: as §2
The free fatty acids in the extract were analysed as Cu-salts in isooctane measured at 715 nm and quantified according to a calibration curve based on oleic acid (Kwon D. Y. and Rhee J. S. (1986), A simple and rapid Colourimetric Method for […]

[3] = Model dough, free fatty acid in dough (cowpea LAH); type: biochemical, wheat
Experimental: as §1, §2
The free fatty acids in the extract were analysed as Cu-salts in isooctane measured at 715 nm and quantified according to a calibration curve based on oleic acid (Kwon D. Y. and Rhee J. S. (1986), A simple and rapid Colourimetric Method for
In the first series of dough experiments purified cowpea LAH was tested in 10 g dough in different concentrations in order to test the activity of the enzyme in dough and in order to find a suitable dosage for baking experiments. The activity of the enzyme was measured by analysing the level of free fatty acid in dough.

[4] = Enzyme-catalysed degumming of vegetable oil; type: biochemical; settings: rapeseed oil degumming; preliminary results
Experimental: Vegetable oil, in particular rapeseed oil, was treated with LAH isolated from cowpea to effect degumming of the oil. The process used was essentially as per the enzyme-catalysed degumming process of vegetable oil generally taught in Buchold, H. (Fat Sci. Technol. 95 Jahrgang nr. 8, 1993, pp300-305), excepting that LAH was used.

[5] = Minibread dough, HPLC analysis of galactolipids; type: biochemical, wheat
Experimental: as §2, §3, §4

[6] = Assay for enzyme activity with pNP-Caprate; type: biochemical; settings: desalted/concentrated sample of purification step 5 (used for baking trials)
Experimental: Preparation of substrate for enzymatic assay: The substrate, pNP-Caprate (C10), was dissolved in ethanol and diluted in 100 mM Na-Phosphate-buffer (pH 6.3) to a final concentration of 0.1 mg,/ml substrate and 30% ethanol respectively, and kept at room temperature.
Assay method: The enzyme assay mixture contained 30 μl sample/blank and 250 μl substrate. The mixture was incubated at 35° C. for 30 minutes (420 nm) whilst simultaneously running an ELISA-reader (420 nm) kinetic program. The Vmax value was used for calculation of enzyme activity (U/ml). Vmax was converted to μmol from a standard curve for solutions of pNP measured under the same conditions as the sample. The enzyme activity is defined as the amount of enzyme which produce 1 μmol of pNP per min. at 35° C.

[7] = Minibread dough, GLC analysis of non-polar dough lipids; type: biochemical, wheat
Experimental: as §2
(§5) Perkin Elmer 8420 Capillary Gas Chromatography equipped with WCOT fused silica column 12.5 m×0.25 mm ID×0.1 μm 5% phenyl-methyl-silicone (CP Sil 8 CB from Crompack). • Carrier: Helium. • Injection: 1.5 μl with split. • Detector: FID. 385° C.
(§6) Sample preparation: 50 mg wheat lipid was dissolved in 12 ml heptane: pyridine 2:1 containing an internal standard heptadecane, 2 mg/ml. 500 μl of the sample was transferred to a crimp vial. 100 μl MSTFA (N-Methyl-N-trimethylsilyltrifluoracetamid) was added and the reaction incubated for 15 minutes at 90° C. Calculation: Response factors for mono-di-triglycerides and free fatty acid were determined from reference mixtures of these components. Based on these response factors the mono-di-triglycerides and free fatty acids in wheat lipids were calculated.

[8] = Model dough, GLC analysis of non-polar lipids (cowpea LAH); type: biochemical, wheat; settings: Example 1, FIG. 7, compared with activity on polar lipids and free fatty acid formation
Experimental: as §1, §5, §6
The non-polar lipids were analysed by GLC.

[9] = enzyme expressed in a baculovirus system, Matos et al; cited from earlier work
[10] = Withers-Martinez et al; cited from earlier work
[11] = Cowpea LAH 0.0048 Units/kg flour
[12] = Cowpea LAH 0.024 Units/kg flour
[13] = Cowpea LAH % 0.1195, minibread dough
[14] = Cowpea LAH % 0.239, minibread dough
[15] = Cowpea LAH % 0.478, minibread dough
[16] = Cowpea LAH % 0.956, minibread dough
[17] = Test no. 2, Cowpea LAH 0.05 % in dough, fully proofed minibread dough
[18] = Test no. 3, Cowpea LAH 0.15 % in dough, fully proofed minibread dough
[19] = Test no. 3, Cowpea LAH 0.357 Units/kg flour, no DGDG added, minibread dough
[20] = Test no. 4, Cowpea LAH 0.357 Units/kg flour + DGDG 55% pure 0.2 %, minibread dough

Molecule: Cowpea LAH: lipolytic acyl hydrolase (E.C. 3.1.1.26) isolated from cowpea (Vigna unguiculata) leaves; hydrolyses glycolipid and phospholipid, not triglyceride
- DGDG [1, 11]: 2.22 ‰
- DGMG [1, 11]: 0.20 ‰
- LPC [1, 11]: 1.50 ‰
- PC [1, 11]: 0.52 ‰
- DGDG [1, 12]: 2.12 ‰
- DGMG [1, 12]: 0.23 ‰
- LPC [1, 12]: 1.51 ‰
- PC [1, 12]: 0.48 ‰
- DGDG ([1]; Cowpea LAH 0.12 Units/kg flour): 1.84 ‰
- DGMG ([1]; Cowpea LAH 0.12 Units/kg flour): 0.26 ‰
- LPC ([1]; Cowpea LAH 0.12 Units/kg flour): 1.37 ‰
- PC ([1]; Cowpea LAH 0.12 Units/kg flour): 0.35 ‰
- DGDG ([1]; Cowpea LAH 0.6 Units/kg flour): 1.08 ‰
- DGMG ([1]; Cowpea LAH 0.6 Units/kg flour): 0.30 ‰
- LPC ([1]; Cowpea LAH 0.6 Units/kg flour): 1.30 ‰
- PC ([1]; Cowpea LAH 0.6 Units/kg flour): 0.29 ‰
- DGDG ([1]; Cowpea LAH 3.0 Units/kg flour): 0.30 ‰
- DGMG ([1]; Cowpea LAH 3.0 Units/kg flour): 0.11 ‰
- LPC ([1]; Cowpea LAH 3.0 Units/kg flour): 1.19 ‰
- PC ([1]; Cowpea LAH 3.0 Units/kg flour): 0.00 ‰
- Free fatty acid in dough ([2]; Cowpea LAH 0.1195 Units/kg): 2.72 ‰
- Free fatty acid in dough ([2]; Cowpea LAH 0.239 Units/kg): 2.81 ‰
- Free fatty acid in dough ([2]; Cowpea LAH 0.478 Units/kg): 3.07 ‰
- Free fatty acid in dough ([2]; Cowpea LAH 0.956 Units/kg): 3.28 ‰
- Free fatty acid ([2]; Test no 3, Cowpea LAH 0.357 Units/kg flour, no DGDG): 3.07 ‰
- Free fatty acid ([2]; Test no 4, Cowpea LAH 0.357 Units/kg flour + DGDG 55% pure 0.2 %): 3.00 ‰
- Free fatty acid ([2]; Test no 10, Cowpea LAH 1.07 Units/kg flour, no DGDG): 3.32 ‰
- Free fatty acid ([2]; Test no 11, Cowpea LAH 1.07 Units/kg flour + DGDG 55% pure 0.1 %): 3.42 ‰
- Free fatty acid ([2]; Test no 12, Cowpea LAH 1.07 Units/kg flour + DGDG 55% pure 0.2 %): 3.64 ‰
- Free fatty acid ([2]; Test no 13, Cowpea LAH 1.07 Units/kg flour + DGDG 55% pure 0.4 %): 3.92 ‰
- Free fatty acid ([2]; Test no 15, Cowpea LAH 1.07 Units/kg flour + Soy oil 2 %): 3.35 ‰
- Free fatty acid ([2]; Test no 16, Cowpea LAH 2.14 Units/kg flour + Soy oil 2 %): 3.75 ‰
- Fatty acid in dough ([2]; Test no. 2, Cowpea LAH 0.05 % in dough): 2.75 ‰
- Fatty acid in dough ([2]; Test no. 3, Cowpea LAH 0.15 % in dough): 2.96 ‰
- Fatty acid in dough [3, 11]: 1.66 ‰
- Fatty acid in dough [3, 12]: 1.78 ‰
- Fatty acid in dough ([3]; Cowpea LAH 0.12 Units/kg flour): 2.13 ‰
- Fatty acid in dough ([3]; Cowpea LAH 0.6 Units/kg flour): 2.55 ‰
- Fatty acid in dough ([3]; Cowpea LAH 3 Units/kg flour): 3.44 ‰
- amounts of polar lipids in the oil [4]: reduce the amounts of polar lipids
- triglyceride levels of the oil [4]: not significantly affecting
- DGDG [5, 13]: 2.08 ‰
- DGMG [5, 13]: 0.23 ‰
- DGDG [5, 14]: 2.01 ‰
- DGMG [5, 14]: 0.20 ‰
- DGDG [5, 15]: 1.89 ‰
- DGMG [5, 15]: 0.24 ‰
- DGDG [5, 16]: 1.60 ‰
- DGMG [5, 16]: 0.20 ‰
- DGDG [5, 17]: 2.03 ‰
- DGMG [5, 17]: 0.27 ‰
- DGDG [5, 18]: 1.92 ‰
- DGMG [5, 18]: 0.28 ‰
- DGDG [5, 19]: 1.93 ‰
- DGMG [5, 19]: 0.23 ‰
- DGDG [5, 20]: 2.4 ‰
- DGMG [5, 20]: 0.25 ‰
- Vmax [6]: 5.6 mOD/min.
- enzyme activity [6]: 0.010 U/ml
- Diglyceride [7, 13]: 0.96 ‰
- Monoglyceride [7, 13]: 0.40 ‰
- Triglyceride [7, 13]: 5.04 ‰
- Diglyceride [7, 14]: 1.23 ‰
- Monoglyceride [7, 14]: 0.41 ‰
- Triglyceride [7, 14]: 5.21 ‰
- Diglyceride [7, 15]: 0.90 ‰
- Monoglyceride [7, 15]: 0.43 ‰
- Triglyceride [7, 15]: 5.09 ‰
- Diglyceride [7, 16]: 1.01 ‰
- Monoglyceride [7, 16]: 0.41 ‰
- Triglyceride [7, 16]: 5.23 ‰
- Diglyceride [7, 17]: 0.95 ‰
- Monoglyceride [7, 17]: 0.43 ‰
- Triglyceride [7, 17]: 4.98 ‰
- Diglyceride [7, 18]: 0.96 ‰
- Monoglyceride [7, 18]: 0.43 ‰
- Triglyceride [7, 18]: 5.11 ‰
- Triglyceride [7, 19]: not detected
- Triglyceride [7, 20]: 5.82 ‰
- activity on triglyceride (GLC analysis) [8]: no activity

Molecule: 43 KDa protein from drought-stressed cowpea: galactolipid acyl hydrolase of Matos et al, expressed in a baculovirus system; amino acid sequence SEQ ID No. 1
- activity on triacylglycerol (triglyceride) [9]: no activity
- galactolipid acyl hydrolase activity [9]: preferentially galactolipid acyl hydrolase activity
- phospholipid activity [9]: some phospholipid activity

B1: HPL: human pancreas lipase (protein, UniProt P16233 17-465, looked up)
Pancreatic triacylglycerol …: KEVCYERLGCFSDDSPWSGITERPLHILPWSPKDVNTRFLLYTNENPNNFQEVAADSSSISGSNFKTNRKTRFIIHGFIDKGEENWLANVCKNLFKVESVNCICVDWKGGSRTGYTQASQNIRIVGAEVAYFVEFLQSAFGYSPSNVHVIGHSLGAHAAGEAGRRTNGTIGRITGLDPAEPCFQGTPELVRLDPSDAKFVDVIHTDGAPIVPNLGFGMSQVVGHLDFFPNGGVEMPGCKKNILSQIVDIDGIWEGTRDFAACNHLRSYKYYTDSIVNPDGFAGFPCASYNVFTANKCFPCPSGGCPQMGHYADRYPGKTNDVGQKFYLDTGDASNFARWRYKVSVTLSGKKVTGHILVSLFGNKGNSKQYEIFKGTLKPDSTHSNEFDSDVDVGDLQMVKFIWYNNVINPTLPRVGASKIIVETNVGKQFNFCSPETVREEVLLTLTPC
- activity on triglyceride [10]: only activity on triglyceride

B2: GPLRP2: guinea pig pancreatic lipase-related protein 2 (protein, UniProt P81139 1-434, looked up)
Pancreatic lipase-related …: AEVCYSHLGCFSDEKPWAGTSQRPIKSLPSDPKKINTRFLLYTNENQNSYQLITATDIATIKASNFNLNRKTRFIIHGFTDSGENSWLSDMCKNMFQVEKVNCICVDWKGGSKAQYSQASQNIRVVGAEVAYLVQVLSTSLNYAPENVHIIGHSLGAHTAGEAGKRLNGLVGRITGLDPAEPYFQDTPEEVRLDPSDAKFVDVIHTDISPILPSLGFGMSQKVGHMDFFPNGGKDMPGCKTGISCNHHRSIEYYHSSILNPEGFLGYPCASYDEFQESGCFPCPAKGCPKMGHFADQYPGKTNAVEQTFFLNTGASDNFTRWRYKVTVTLSGEKDPSGNINVALLGKNGNSAQYQVFKGTLKPDASYTNSIDVELNVGTIQKVTFLWKRSGISVSKPKMGASRITVQSGKDGTKYNFCSSDIVQENVEQTLSPC
- activity on galactolipids and phospholipids [10]: has activity on galactolipids and phospholipids
- activity on triglyceride [10]: reduced activity
